Results reported in publication PMC6718736, “Validation of in vitro methods for human cytochrome P450 enzyme induction: Outcome of a multi-laboratory study” (Toxicology in Vitro, 2019).
Like-named read-outs stand apart in the source and are kept apart here.

Assays:
CYP = details: cited from earlier work; for CYP induction in vitro (human hepatocytes): CYP isoforms induced, ref Abadie et al. (2009), Richert et al. (2010), Preissner et al. (2010), Hoffmann et al. (2014)
CYP3A4 [1] = experiment: CYP3A4 enzyme induction assay in cryopreserved primary human hepatocytes (PHH); details: for Assigned classification CYP3A4: PHH
CYP1A2 [2] = experiment: CYP1A2 enzyme induction assay in cryopreserved HepaRG cells (phenacetin probe, LC/MS); format: in vitro ADME, human; details: for Prediction in vivo inducer: Cmax/F2 >0.5 criterion; for F2: in vitro concentration producing 2-fold induction; for Assigned classification CYP1A2: HepaRG
CYP1A2 [3] = details: cited from earlier work; for Induction in vivo: CYP1A2, human, ref Table 1; for CYP induction in vivo literature reference: CYP1A2: human in vivo, CYP named without remark = induced, ref references in the cell, Washington University database, Hoffmann et al. (2014), Pelkonen et al. (2008), Hukkanen et al. (2012); for CYP1A2 induction in vivo: human, ref Andersson, 1996
CYP3A4 [4] = details: cited from earlier work; for CYP induction in vivo literature reference: CYP3A4: human in vivo, CYP named without remark = induced, ref references in the cell, Washington University database, Hoffmann et al. (2014), Pelkonen et al. (2008), Hukkanen et al. (2012)
CYP2B6 [5] = experiment: CYP2B6 enzyme induction assay in cryopreserved primary human hepatocytes (PHH); format: in vitro ADME; details: for Assigned classification CYP2B6: PHH
[6] = cited from earlier work
CYP3A4 [7] = experiment: CYP3A4 enzyme induction assay in cryopreserved HepaRG cells (midazolam probe, LC/MS); format: in vitro ADME, human; details: for Assigned classification CYP3A4: HepaRG
CYP2B6 [8] = experiment: CYP2B6 enzyme induction assay in cryopreserved HepaRG cells (bupropion probe, LC/MS); format: in vitro ADME, human; details: for Prediction in vivo inducer: Cmax/F2 >0.5 criterion; for Assigned classification CYP2B6: HepaRG
CYP1A2 [9] = experiment: CYP1A2 enzyme induction assay in cryopreserved primary human hepatocytes (PHH); format: in vitro ADME; details: for Prediction in vivo inducer: Cmax/F2 >0.5 criterion; for Assigned classification CYP1A2: PHH
[10] = human in vivo plasma concentration, normal dose
[11] = human in vivo, normal dose (Table 10)

COc1ccc2[nH]c([S+]([O-])Cc3ncc(C)c(OC)c3C)nc2c1 (stereo not shown) [Omeprazole]
No: Prediction in vivo inducer (CYP3A4 [1]; CYP3A4, PHH) | Prediction in vivo inducer (CYP1A2 [2]; CYP1A2, HepaRG cells) | Induction in vivo (CYP1A2 [3]) | Induction in vivo (CYP3A4 [4]; CYP3A4, human in vivo reference classification (Table 11)) | Prediction in vivo inducer (CYP2B6 [5]; CYP2B6, PHH) | Induction in vitro (CYP3A4 [7]; CYP3A4, HepaRG cells) | Prediction in vivo inducer (CYP3A4 [7]; CYP3A4, HepaRG cells) | Prediction in vivo inducer (CYP2B6 [8]; CYP2B6, HepaRG cells) | Induction in vitro (CYP2B6 [8]; CYP2B6, HepaRG cells, positive in one batch in each of the three laboratories) | Prediction in vivo inducer (CYP1A2 [9]; CYP1A2, PHH)
NOT induced at clinically used doses: CYP induction in vivo literature reference: CYP1A2 (CYP1A2 [3])
1: Assigned classification CYP3A4 (CYP3A4 [1]; Lab 1, batch 0 6 A) | Assigned classification CYP3A4 (CYP3A4 [1]; Lab 1, batch 8 0 8) | Assigned classification CYP3A4 (CYP3A4 [1]; Lab 2, batch 0 6 A) | Assigned classification CYP3A4 (CYP3A4 [1]; Lab 3, batch 0 6 A) | Assigned classification CYP3A4 (CYP3A4 [1]; Lab 3, batch 8 0 8) | Assigned classification CYP1A2 (CYP1A2 [2]; Lab 1, batch 20) | Assigned classification CYP1A2 (CYP1A2 [2]; Lab 1, batch 35) | Assigned classification CYP1A2 (CYP1A2 [2]; Lab 1, batch 36) | Assigned classification CYP1A2 (CYP1A2 [2]; Lab 2, batch 20) | Assigned classification CYP1A2 (CYP1A2 [2]; Lab 2, batch 35) | Assigned classification CYP1A2 (CYP1A2 [2]; Lab 2, batch 36) | Assigned classification CYP1A2 (CYP1A2 [2]; Lab 3, batch 20) | Assigned classification CYP1A2 (CYP1A2 [2]; Lab 3, batch 35) | Assigned classification CYP1A2 (CYP1A2 [2]; Lab 3, batch 36) | Assigned classification CYP2B6 (CYP2B6 [5]; Lab 1, batch 0 6 A) | Assigned classification CYP2B6 (CYP2B6 [5]; Lab 1, batch 4 0 8) | Assigned classification CYP2B6 (CYP2B6 [5]; Lab 2, batch 0 6 A) | Assigned classification CYP2B6 (CYP2B6 [5]; Lab 3, batch 0 6 A) | Assigned classification CYP2B6 (CYP2B6 [5]; Lab 3, batch 4 0 8) | Assigned classification CYP2B6 (CYP2B6 [5]; Lab 3, batch 8 0 8) | Assigned classification CYP2B6 (CYP2B6 [8]; Lab 2, batch 36) | Assigned classification CYP2B6 (CYP2B6 [8]; Lab 3, batch 20) | Assigned classification CYP1A2 (CYP1A2 [9]; Lab 1, batch 0 6 A) | Assigned classification CYP1A2 (CYP1A2 [9]; Lab 1, batch 4 0 8) | Assigned classification CYP1A2 (CYP1A2 [9]; Lab 1, batch 8 0 8) | Assigned classification CYP1A2 (CYP1A2 [9]; Lab 2, batch 0 6 A) | Assigned classification CYP1A2 (CYP1A2 [9]; Lab 2, batch 4 0 8) | Assigned classification CYP1A2 (CYP1A2 [9]; Lab 2, batch 8 0 8) | Assigned classification CYP1A2 (CYP1A2 [9]; Lab 3, batch 0 6 A) | Assigned classification CYP1A2 (CYP1A2 [9]; Lab 3, batch 4 0 8) | Assigned classification CYP1A2 (CYP1A2 [9]; Lab 3, batch 8 0 8)
0: Assigned classification CYP3A4 (CYP3A4 [1]; Lab 1, batch 4 0 8) | Assigned classification CYP3A4 (CYP3A4 [1]; Lab 2, batch 4 0 8) | Assigned classification CYP3A4 (CYP3A4 [1]; Lab 2, batch 8 0 8) | Assigned classification CYP3A4 (CYP3A4 [1]; Lab 3, batch 4 0 8) | Assigned classification CYP2B6 (CYP2B6 [5]; Lab 1, batch 8 0 8) | Assigned classification CYP2B6 (CYP2B6 [5]; Lab 2, batch 4 0 8) | Assigned classification CYP2B6 (CYP2B6 [5]; Lab 2, batch 8 0 8) | Assigned classification CYP3A4 (CYP3A4 [7]; Lab 1, batch 20) | Assigned classification CYP3A4 (CYP3A4 [7]; Lab 1, batch 35) | Assigned classification CYP3A4 (CYP3A4 [7]; Lab 1, batch 36) | Assigned classification CYP3A4 (CYP3A4 [7]; Lab 2, batch 20) | Assigned classification CYP3A4 (CYP3A4 [7]; Lab 2, batch 35) | Assigned classification CYP3A4 (CYP3A4 [7]; Lab 2, batch 36) | Assigned classification CYP3A4 (CYP3A4 [7]; Lab 3, batch 20) | Assigned classification CYP3A4 (CYP3A4 [7]; Lab 3, batch 35) | Assigned classification CYP3A4 (CYP3A4 [7]; Lab 3, batch 36) | Assigned classification CYP2B6 (CYP2B6 [8]; Lab 1, batch 20) | Assigned classification CYP2B6 (CYP2B6 [8]; Lab 1, batch 35) | Assigned classification CYP2B6 (CYP2B6 [8]; Lab 1, batch 36) | Assigned classification CYP2B6 (CYP2B6 [8]; Lab 2, batch 20) | Assigned classification CYP2B6 (CYP2B6 [8]; Lab 2, batch 35) | Assigned classification CYP2B6 (CYP2B6 [8]; Lab 3, batch 35) | Assigned classification CYP2B6 (CYP2B6 [8]; Lab 3, batch 36)
not a CYP1A2 inducer: CYP1A2 induction in vivo (CYP1A2 [3]; normal doses (20-40 mg))
predicted as a non-inducer: Prediction in vivo inducer (CYP2B6 [8]; CYP2B6, HepaRG cells, listed as omeprazole)
12.9 µM: F2 (CYP1A2 [2]; CYP1A2, HepaRG cells)
38.6 to 116 µM: F2 (CYP2B6 [5]; CYP2B6, PHH)
38.7 to 117 µM: F2 (CYP3A4 [1]; CYP3A4, PHH)
non-inducer: Prediction in vivo inducer (CYP3A4 [1]; CYP3A4, PHH, Cmax/F2 >0.5 criterion) | Prediction in vivo inducer (CYP1A2 [2]; CYP1A2, HepaRG cells, listed as omeprazole) | Prediction in vivo inducer (CYP2B6 [5]; CYP2B6, PHH, Cmax/F2 >0.5 criterion) | Prediction in vivo inducer (CYP3A4 [7]; CYP3A4, HepaRG cells, Cmax/F2 >0.5 criterion) | Prediction in vivo inducer (CYP1A2 [9]; CYP1A2, PHH, listed as omeprazole)
weak inducer: CYP1A2 induction in vivo (CYP1A2 [3]; 120 mg doses or poor metabolizers (40 mg dose))
38.6 to 118 µM: F2 (CYP1A2 [9]; CYP1A2, PHH, in vitro concentration producing 2-fold induction)
Yes: Induction in vitro (CYP3A4 [1]; CYP3A4, PHH) | Induction in vitro (CYP1A2 [2]; CYP1A2, HepaRG cells, positive in one batch in each of the three laboratories) | Induction in vitro (CYP2B6 [5]; CYP2B6, PHH) | Induction in vitro (CYP1A2 [9]; CYP1A2, PHH, positive in one donor in each of the three laboratories)
0.68 to 3.5 µM: Cmax [6, 10] | Cmax [6, 11]
CYP1A2, CYP2B6, CYP3A4: CYP induction in vitro (human hepatocytes) (CYP)
NOT induced: CYP induction in vivo literature reference: CYP3A4 (CYP3A4 [4])

O=C1C(CC[S+]([O-])c2ccccc2)C(=O)N(c2ccccc2)N1c1ccccc1 (stereo not shown) [Sulfinpyrazone]
11.0 to 33.0 µM: F2 (CYP2B6 [8]; CYP2B6, HepaRG cells, in vitro concentration producing 2-fold induction)
45 µM: Cmax [6, 10] | Cmax [6, 11]
CYP1A2: CYP induction in vivo literature reference: CYP1A2 (CYP1A2 [3])
CYP3A4: CYP induction in vivo literature reference: CYP3A4 (CYP3A4 [4])
3.66 µM: F2 (CYP3A4 [1]; CYP3A4, PHH)
11 µM: F2 (CYP1A2 [2]; CYP1A2, HepaRG cells) | F2 (CYP3A4 [7]; CYP3A4, HepaRG cells)
33 µM: F2 (CYP2B6 [5]; CYP2B6, PHH)
CYP1A2, CYP2B6, CYP3A4: CYP induction in vitro (human hepatocytes) (CYP)
Yes: Induction in vivo (CYP1A2 [3])
demonstrated: CYP2B6 induction in human hepatocytes (CYP; CYP2B6, ref Faucette et al., 2004)
